Experimental findings from ChEMBL document CHEMBL2034863, “Application of MM-GB/SA and WaterMap to SRC Kinase Inhibitor Potency Prediction” (ACS Med Chem Lett, 2012) are described below.

This assay addresses Proto-oncogene tyrosine-protein kinase Src (Homo sapiens, UniProt P12931).

By IC50 is commonly meant the concentration that gives 50% inhibition.

Proto-oncogene tyrosine-protein kinase Src, sequence (P12931 2-536 limits assumed): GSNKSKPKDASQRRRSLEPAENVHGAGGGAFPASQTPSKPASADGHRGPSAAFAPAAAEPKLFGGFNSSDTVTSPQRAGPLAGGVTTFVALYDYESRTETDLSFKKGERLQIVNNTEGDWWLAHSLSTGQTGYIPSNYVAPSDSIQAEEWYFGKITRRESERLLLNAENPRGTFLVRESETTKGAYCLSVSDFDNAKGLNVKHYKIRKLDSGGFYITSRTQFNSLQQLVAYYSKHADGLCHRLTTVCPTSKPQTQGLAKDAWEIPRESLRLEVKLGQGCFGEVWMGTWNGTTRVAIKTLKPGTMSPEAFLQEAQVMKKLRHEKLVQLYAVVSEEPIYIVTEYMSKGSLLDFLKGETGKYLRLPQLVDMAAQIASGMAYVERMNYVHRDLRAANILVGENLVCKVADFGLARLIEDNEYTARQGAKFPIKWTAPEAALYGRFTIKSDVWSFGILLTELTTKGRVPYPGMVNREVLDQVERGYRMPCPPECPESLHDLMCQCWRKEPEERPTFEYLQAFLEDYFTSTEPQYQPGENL

On to `CCCP(=O)(CCC)c1ccc(Nc2nc(C(C)C)nc3c2ncn3CC)cc1`, for which the midpoint of inhibition, the IC50, lay at 3.9 nM. Then `CCCCP(=O)(CCCC)c1ccc(Nc2nc(C(C)C)nc3c2ncn3CC)cc1`, with 8.8 nM. Then `CCn1cnc2c(Nc3ccc(P(C)(C)=O)cc3)nc(C(C)C)nc21`, with 25.1 nM. The result for `CCn1cnc2c(Nc3ccc(P(C)(C)=O)cc3)nc(NC3CCOCC3)nc21` reads 41.2 nM. Consider `Cc1cccc(C)c1/C=C/n1cnc2c(Nc3ccc(P(C)(C)=O)cc3)nc(-c3ccccn3)nc21`, for which the IC50 came out at 43.1 nM. The result for `C=Cn1cnc2c(Nc3ccc(P(C)(C)=O)cc3)nc(N3CCC(CO)CC3)nc21` reads 155 nM; that for `C=Cn1cnc2c(Nc3ccc(P(C)(C)=O)cc3)nc(OC3CCOC3)nc21` (centres undefined), 188 nM.

Take `CCn1cnc2c(Nc3ccc(C(C)C)cc3)nc(C(C)C)nc21`: the IC50 was determined as 385 nM. Then `C=Cn1cnc2c(Nc3ccc(P(C)(C)=O)cc3)ncnc21`, with 1000 nM.
